From patent US7351739B2, “Bioactive compounds and methods of uses thereof” (Wellgen, Inc., priority 2004, dated 2008)

Legend:
[1] = tested on: JB6 C141 cells; assay: Anchorage-independent (soft agar) neoplastic cell transformation assay, EGF-exposed; format: cell-based, mouse
Method: (§1) Cell cultures: The JB6 mouse epidermal cell line Cl 41 or its stable AP-1 luciferase reporter plasmid stable transfectant was maintained with Eagles minimal essential medium (MEM), containing 5% fetal bovine serum (FBS), 2 mM L-glutamine and […] gentamicin or 50 IU/ml penicillin G and 50 μg/ml streptomycin, in an atmosphere of 95% air-5% CO2 at 37° C. Cells were seeded at a density of 5×10^4 cells/ml and cultured for 24 h. The cells were serum-starved in 0.1% FBS in MEM for 36 h to synchronize the cell cycle into G0 phase. The cells were treated with various concentrations of the test compound or distilled water (as a control) for 1 h, followed, by addition of MTS assay buffer for toxicity studies or 12-O-tetradecanoylphorbol-13-acetate (TPA) or epidermal growth factor (EGF at 10-20 ng/ml) to determine AP-1 activation. Some cells were used for cell transformation assays as described below. For human phenotype expression assays, human colon HCT116, human lung cancer HT460, human skin melanoma SK-MEL-28 or human ovarian SK-OV3 cells were cultured in their respective medium and harvested for soft agar assays.
(§2) Anchorage-independent transfornation assay: Inhibition of test compounds on TPA or EGF-induced cell transformation or human tumor phenotype expression was investigated under anchorage independent conditions. Samples of 1×10^4 cells were exposed to TPA (20 ng/ml) or EGF (20 ng/ml) with or without different concentrations of test compound inl ml 0.33% basal medium Eagle (BME) agar containing 10% FBS over 3.5 ml 0.5% BME agar medium containing 10% FBS. Gingerol was dissolved in 100% ethanol. Ethanol was used in the control group for comparison. The cultures were maintained in a 37° C., 5% CO2 incubator for 14-21 days and the cell colonies were scored by a computerized program integrated with a light microscope. Human tumor cells were treated in a similar manner but no EGF or TPA was needed.

[2] = tested on: HCT116 colon cancer cells; assay: Soft agar colony formation / human tumor phenotype expression; format: cell-based
Method: as §1, §2

[3] = tested on: HT460 lung cancer cells; assay: as above; format: cell-based; conditions: for Effect against human lung cancer cells, colony formation (figure statement, in words): concentration not given
Method: as §1, §2

[4] = tested on: SK-MEL-28 skin cancer cells; assay: as above; format: cell-based
Method: as §1, §2

[5] = tested on: JB6 C141 mouse skin cells; assay: MTS toxicity (cell proliferation) assay; format: cell-based; conditions: 50 μM
Method: as §1, with “For human phenotype expression assays, human colon HCT116, human lung cancer HT460, human skin melanoma SK-MEL-28 or human ovarian SK-OV3 cells were cultured in their respective medium and harvested for soft agar assays.” left out
Cell Proliferation Assay (MTS Assay): Cell proliferation was analyzed using the CELLTITER 96® AQueous One Solution Cell Proliferation Assay (Promega, Madison, Wis.) following the instructions provided. […] Then the absorbance of a colored formazan product catalyzed by dehydrogenase enzymes in metabolically active cells was recorded at 492 nm with 690 nm as a background. Data were expressed as the percentage of absorbance of untreated control cells.

[6] = tested on: SK-OV-3 ovarian cancer cells; assay: Soft agar colony formation / human tumor phenotype expression; format: cell-based
Method: as §1, §2

[7] = tested on: skin cancer induced by UVA exposure in hairless mice; assay: UVA-induced skin tumors in SKh-1 hairless mice, topical treatment; format: in vivo; conditions: day 84, 30 micrograms per mouse on tumors, 5 days a week, day 21 to 53
Method: Twenty SKh-1 hairless mice were exposed to UVA to induce skin tumor formation. […] Rubescensin J was dissolved in DMSO and then brought up to volume in acetone. The two groups. of mice were treated with rubescensin J in acetone, and acetone alone, respectively. […] Five days a week, each mouse received a total of 30 micrograms applied directly on tumor(s) in a volume of 250 microliters. The compound was made fresh each day. Tumor numbers and sizes were monitored and recorded periodically.
Initial measurements were taken on day 1, 14 and 20, and the first treatment was applied on day 21. The experimental group of mice were treated with the compound 5 days a week until the compound was depleted on day 53. Measurement #1 through to #11 were made on day 14, 20, 24, 28, 32, 36, 39, 43, 51, 53, and 84. The numbers of tumor papillomas and the tumor volumes are expressed as a percentage of the number of papillomas and tumor volume on day 1.

[8] = Homo sapiens, 25 μM, read-out: % Inhibition: HT 460 Lung Cancer

Rubescensin M
Inhibition of neoplastic transformation in JB6 cell (in words) ([1]; 100 μM): almost completely inhibits
Prevention of neoplastic cell transformation, EGF, soft agar (figure statement, in words) ([1]; 100 μM): prevented neoplastic cell transformation
% Inhibition: Neoplastic Transformation in JB6 Cells ([1]; text b462: 100 μM): 90%
% Inhibition: HCT116 Colon Cancer Cells ([2]; 75 μM): 90%
Decreasing colony formation, human colon cancer cells (figure statement, in words) ([2]; concentration not given): particularly effective
% Inhibition: HT 460 Lung Cancer ([3]; 75 μM): 73%
Effect against human lung cancer cells, colony formation (figure statement, in words) [3]: moderate inhibitory effect
% Inhibition: SK-MEL-28 Skin Cancer ([4]; 50 μM): 100%
Inhibition of SK-MEL-28 skin cancer cell growth (in words) ([4]; 50 μM): completely inhibited
Effect against human skin melanoma cells, colony formation (figure statement, in words) ([4]; concentration not given): particularly effective

CC1OC(OC2C(O)C(CO)OC(OCCc3ccc(OC(=O)/C=C/c4ccc(O)c(O)c4)c(O)c3)C2O)C(O)C(O)C1O (stereo not drawn) [Rubscendepside]
Toxicity evaluation with MTS assay (in words) [5]: no Rubscendepside toxicity
Prevention of neoplastic cell transformation, EGF, soft agar (figure statement, in words) ([1]; 25 μM): prevented neoplastic cell transformation
Inhibition of neoplastic transformation in JB6 cell (in words) ([1]; 50 μM): completely inhibits
% Inhibition: Neoplastic Transformation in JB6 Cells ([1]; 20-50 μM): 80-100 (20-50 μM) %
Inhibition of HCT116 colon cancer cell growth (in words) ([2]; 15 μM): significantly inhibits
inhibition at 15 µM ([2]; Homo sapiens, HCT-116, 15 μM): 60%
Decreasing colony formation, human colon cancer cells (figure statement, in words) ([2]; concentration not given): particularly effective
Inhibition of HT460 lung cancer cell growth (in words) ([3]; 25 μM): moderately inhibits
inhibition at 25 µM [3, 8]: 37%
Effect against human lung cancer cells, colony formation (figure statement, in words) [3]: moderate inhibitory effect
Inhibition of SK-MEL-28 skin cancer cell growth (in words) ([4]; 25 μM): moderately inhibits
inhibition at 25 µM ([4]; Homo sapiens, SK-MEL-28, 25 μM): 36%
Effect against human skin melanoma cells, colony formation (figure statement, in words) ([4]; concentration not given): moderate inhibitory effect

C=C1[C@@H](O)[C@@]23C(CC[C@@H]1[C@H]2O)[C@@]12C(=O)O[C@@]3(O)[C@@H](O)C1C(C)(C)CC[C@@H]2O (stereo partly drawn) [Rabdoternin B]
Inhibition of neoplastic transformation in JB6 cell (in words) ([1]; 75 μM): completely inhibits
Prevention of neoplastic cell transformation, EGF, soft agar (figure statement, in words) ([1]; 75 μM): prevented neoplastic cell transformation
inhibition at 75 µM ([1]; Mus musculus, 75 μM): 100%
Inhibition of HCT116 colon cancer cell growth (in words) ([2]; 50 μM): completely inhibited
inhibition at 50 µM ([2]; Homo sapiens, HCT-116, 50 μM): 100%
Decreasing colony formation, human colon cancer cells (figure statement, in words) ([2]; concentration not given): particularly effective
inhibition at 35 µM ([3]; Homo sapiens, 35 μM, read-out: % Inhibition: HT 460 Lung Cancer): 0%
inhibition at 35 µM ([4]; Homo sapiens, SK-MEL-28, 35 μM): 0%

C=C1[C@@H](O)[C@@]23C(CC[C@@H]1[C@H]2O)[C@]12CCCC(C)(C)C1[C@H](O)[C@]3(O)OC2=O (stereo partly drawn) [Rabdoternin A]
Inhibition of neoplastic transformation in JB6 cell (in words) ([1]; 25 μM): completely inhibits
Prevention of neoplastic cell transformation, EGF, soft agar (figure statement, in words) ([1]; 25 μM): prevented neoplastic cell transformation
inhibition at 25 µM ([1]; Mus musculus, 25 μM): 100%
Inhibition of HCT116 colon cancer cell growth (in words) ([2]; 25 μM): completely inhibited
inhibition at 25 µM ([2]; Homo sapiens, HCT-116, 25 μM): 100%
Decreasing colony formation, human colon cancer cells (figure statement, in words) ([2]; concentration not given): particularly effective
Inhibition of HT460 lung cancer cell growth (in words) ([3]; 25 μM): moderately inhibited
inhibition at 25 µM [3, 8]: 10%
Effect against human lung cancer cells, colony formation (figure statement, in words) [3]: moderate inhibitory effect
Inhibition of SK-MEL-28 skin cancer cell growth (in words) ([4]; 15 μM): completely inhibits
inhibition at 25 µM ([4]; Homo sapiens, SK-MEL-28, 25 μM): 100%
Effect against human skin melanoma cells, colony formation (figure statement, in words) ([4]; concentration not given): particularly effective

C=C1[C@@H](OC(C)=O)[C@]23[C@H](O)[C@H]1CC[C@H]2[C@]12CCCC(C)(C)[C@H]1[C@H](OC(C)=O)[C@]3(O)OC2 [Rabdoternin C]
Prevention of neoplastic cell transformation, EGF, soft agar (FIG. 21) ([1]; 10 μM): 50%
Inhibition of neoplastic transformation in JB6 cell (in words) ([1]; 100 μM): completely inhibits
% Inhibition: Neoplastic Transformation in JB6 Cells ([1]; text b465: 50% at 10 μM): 50%
% Inhibition: HCT116 Colon Cancer Cells ([2]; 100 μM): 68%
Inhibition of HCT116 colon cancer cell growth (in words) ([2]; 100 μM): significantly inhibited
Decreasing colony formation, human colon cancer cells (figure statement, in words) ([2]; concentration not given): particularly effective
% Inhibition: HT 460 Lung Cancer ([3]; 100 μM): 14%
Inhibition of HT460 lung cancer cell growth (in words) ([3]; 100 μM): moderately inhibited
Effect against human lung cancer cells, colony formation (figure statement, in words) [3]: some inhibitory effect
% Inhibition: SK-MEL-28 Skin Cancer ([4]; 100 μM): 5-10%
Inhibition of SK-MEL-28 skin cancer cell growth (in words) ([4]; 100 μM): moderately inhibited
Effect against human skin melanoma cells, colony formation (figure statement, in words) ([4]; concentration not given): some inhibitory effect

CC1(C)CC[C@H](O)[C@]23CO[C@@](O)([C@@H](O)C12)[C@]12C(=O)[C@@]4(CO4)[C@H](CCC31)[C@H]2O (stereo partly drawn) [Rubescensin J, 1α, 6β, 7β, 14β-tetrohydroxy-7α,20-epoxy-ent-kaur-16,17-exo-epoxide-15-one]
Prevention of neoplastic cell transformation, EGF, soft agar (figure statement, in words) ([1]; 25 μM): prevented neoplastic cell transformation
Inhibition of neoplastic transformation in JB6 cell (in words) ([1]; 40 μM): completely inhibits
% Inhibition: Neoplastic Transformation in JB6 Cells ([1]; 20-40 μM): 83-100 (20-40 μM) %
Decreasing colony formation, human colon cancer cells (figure statement, in words) ([2]; 10 μM): particularly effective
Inhibition of HCT116 colon cancer cell growth (in words) ([2]; 20 μM): completely inhibits
inhibition at 20 µM ([2]; Homo sapiens, HCT-116, 20 μM): 100%
Inhibition of HT460 lung cancer cell growth (in words) ([3]; 20 μM): moderately inhibits
inhibition at 20 µM ([3]; Homo sapiens, 20 μM, read-out: % Inhibition: HT 460 Lung Cancer): 20%
Effect against human lung cancer cells, colony formation (figure statement, in words) [3]: moderate inhibitory effect
Effect against human skin melanoma cells, colony formation (figure statement, in words) ([4]; 20 μM): particularly effective
Inhibition of SK-MEL-28 skin cancer cell growth (in words) ([4]; 20 μM): significantly inhibits
inhibition at 20 µM ([4]; Homo sapiens, SK-MEL-28, 20 μM): 50%
Inhibition of SK-OV-3 ovarian cancer cell growth (in words) ([6]; 20 μM): moderately inhibits
inhibition at 20 µM ([6]; Homo sapiens, SK-OV-3, 20 μM): 15%
Effect against human ovarian cancer cells, colony formation (figure statement, in words) ([6]; concentration not given): moderate inhibitory effect
Number of tumor papillomas as percentage of the number on day 1 ([7]; untreated group about 90%): ~50%
Tumor volume as percentage of the volume on day 1 ([7]; untreated group about 120%): about 60%
